Each structure is given as a SMILES string. A value given as a limit tells only on which side of the number the result lay.

As a reminder, the inhibition is the relative decrease from the control value, in per cent. As usually defined, the EC50 is the concentration giving half of the maximal effect. A high value points to a need for much substance.

The target of one assay is T1, human CB1 receptor (Homo sapiens, UniProt P21554).
T1 construct: expressed in transfected cells; host or cells: human embryonic kidney (HEK) cells, Semliki Forest Virus system, membrane preparations
The experiment in a line: CB1 receptor affinity ([3H]-CP-55,940 displacement, HEK cell membranes). The format is binding. The conditions noted are these: displacement of radioligand [3H]-CP-55,940. As for the experimental part:
(§1) The affinity of the compounds of the invention for cannabinoid receptors was determined using membrane preparations of human embryonic kidney (HEK) cells in which the human CB1 receptor is transiently transfected using a Semliki Forest Virus system in conjunction with [3H]-CP-55,940 as radioligand. After incubation of freshly prepared cell membrane preparation with the [^3H]-ligand, with or without addition of compounds of the invention, separation of bound and free ligand was performed by filtration over glass fiber filters. Radioactivity on the filter was measured by scintillation counting.
(§2) The ability of the compounds to displace the radioligand [^3H]-CP-55,940 was measured at a concentration of 10 μM and values provided as [% inhibition @ 10 μM] both for the CB1 and CB2 receptor assay, The lower % inhibition is, the lower the likelihood of side effects based on CB1 or CB2 receptor inhibition is.

For another assay, the system named is ABCA1 protein. The experiment in a line: Detection of upregulation of ABCA1 protein in cells (ApoA-I binding, high content image analysis). The format is cell-based. The settings on record: THP-1 macrophage cells; for % increase of ABCA1 at 3 μM: 24 hrs with compound; for EC50: ABCA1 protein increasing efficacy. The procedure: The ability of compounds of the invention to increase the level of ABCA1 protein is determined in replicate cultures of THP-1 macrophage cells in 96-well microplates. Cells are plated at an initial density of 100,000 cells/well in 100 μl medium and differentiated to adherent macrophages with the addition of PMA (100 nM) for 68 hrs in 10% fetal bovine serum, 3 μl/L of b-mercaptoethanol, RPMI-1640 medium. Then, cells are incubated with RPMI-1640 medium containing 1% FCS, 25 μg/ml acetylated LDL, for 24 hours at 37°. Following incubation with acetylated LDL, cells are washed twice with 50 μl PBS and incubated with 100 μl of RPMI-1640 medium containing the compound of interest solubilized in DMSO for an additional 24 hrs. The final DMSO concentration in presence of cells is maintained at 0.5%. ApoA-I binding assay using High Content Image Analysis is initiated by replacing with fresh medium, RPMI without Phenol Red, 0.2% BSA containing AlexaFluor®647 labeled ApoA-I for 2 h/37° C./5% CO2. Then, cells are fixed with 4% Formaldehyde inPBS (15 min, RT). Following Nuclei are stained with Hoechst solution (3 μM PBS) and Cytoplasm with Cell Mask Blue (2 μg/ml PBS), 15 min, RT. Finally the stained cells are fixed with a second round of formaldehyde treatment. Fixed stained cells are washed and kept in PBS at 4° C. and can be read immediately until one month after preparation.
The Alexa Fluor 647-labeled Apolipoprotein A-I (20 nM) was prepared as follows: Human recombinant Apolipoprotein A-I (ApoA-I) was exchanged to a buffer of 0.02 M NaHCO3 at pH 8.2 on an NAP desalting column (GE Healthcare) and brought to a concentration to 40 μM (1.13 mg/ml) by adjustment with the same buffer. The ApoA-I was fluorescently labeled by incubation with Alexa Fluor carboxylic acid succimidyl ester. (Alexa Fluor 647, Invitrogen A-20006) at a 2:1 molar ratio (Alexa to ApoA-I) for 1 h under shaking at RT. The remaining unconjugated label was removed by buffer exchange to 0.02M NaHCO3 at pH 8.2.
Imaging and data collection were performed on an OPERA confocal microplate imaging reader using a 20× water immersion objective and UV360 or 405 laser to identify the cell nuclei and a 635 laser to identify the fluorescent ApoA-I. Eight fields of view are captured per well. Image capture and analysis was performed with the Acapella software. Background fluorescence detected in control wells without ApoA-I was subtracted.
Using XLfit3 program (ID Business Solutions Ltd. UK), the model 205 for Dose Response One Site is used to calculate the EC50 values. The compounds of the present invention increase the level of ABCA1 protein by more than 45% at a concentration of 3 μM. […] Even more preferably, the compounds of the present invention have EC50 values in a range of 0.1 μM to 3 μM.

A further assay concerns the target T2, human CB2 receptor (Homo sapiens, UniProt P34972).
T2 construct: expressed in transfected cells; host or cells: human embryonic kidney (HEK) cells, Semliki Forest Virus system, membrane preparations
Kind of assay: CB2 receptor affinity ([3H]-CP-55,940 displacement, HEK cell membranes). The format is binding. The conditions noted are these: displacement of radioligand [3H]-CP-55,940. As for the experimental part: as §1, with “cannabinoid CB2” for “cannabinoid”, “CB2” for “CB1”, “[^3H]-CP-55,940” for “[3H]-CP-55,940”
as §2

T1 sequence (P21554 whole entry): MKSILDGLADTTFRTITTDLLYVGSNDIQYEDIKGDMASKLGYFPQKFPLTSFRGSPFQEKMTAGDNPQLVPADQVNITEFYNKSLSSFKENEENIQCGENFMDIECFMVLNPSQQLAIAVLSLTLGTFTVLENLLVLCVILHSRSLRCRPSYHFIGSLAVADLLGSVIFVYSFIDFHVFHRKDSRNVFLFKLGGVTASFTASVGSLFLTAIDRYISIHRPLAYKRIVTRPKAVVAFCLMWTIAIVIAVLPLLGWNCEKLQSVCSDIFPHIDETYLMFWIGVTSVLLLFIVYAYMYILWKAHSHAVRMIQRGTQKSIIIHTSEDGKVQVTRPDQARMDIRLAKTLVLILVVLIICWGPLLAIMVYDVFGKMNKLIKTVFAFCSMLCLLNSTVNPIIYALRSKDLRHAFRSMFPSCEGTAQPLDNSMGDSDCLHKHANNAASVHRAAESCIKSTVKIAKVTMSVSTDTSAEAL
T2 sequence (P34972 whole entry): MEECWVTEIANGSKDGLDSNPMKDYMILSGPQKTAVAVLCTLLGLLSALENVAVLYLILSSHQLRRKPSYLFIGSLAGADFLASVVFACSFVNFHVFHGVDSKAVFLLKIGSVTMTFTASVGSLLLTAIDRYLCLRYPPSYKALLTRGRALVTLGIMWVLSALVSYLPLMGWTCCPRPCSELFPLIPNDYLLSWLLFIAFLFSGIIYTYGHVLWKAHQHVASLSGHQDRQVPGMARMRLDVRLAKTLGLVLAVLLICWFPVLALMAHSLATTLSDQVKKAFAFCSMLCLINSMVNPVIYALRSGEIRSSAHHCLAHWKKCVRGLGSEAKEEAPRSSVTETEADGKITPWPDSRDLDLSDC

Turning to `Cc1cc(-c2cc(NC(=O)c3cnc4c(c3)OCCN4C)cnc2OCC(F)(F)F)ccc1Cl` [Example 80, N-(5-(4-chloro-3-methylphenyl)-6-(2,2,2-trifluoroethoxy)pyridin-3-yl)-4-methyl-3,4-dihydro-2H-pyrido[3,2-b][1,4]oxazine-7-carboxamide], the inhibition at 10 µM at human CB1 receptor turned out to be 16%; at human CB2 receptor, 14%. Moreover, in the assay with ABCA1 protein, the “% increase of ABCA1 at 3 μM” value was >45% @ 3 μM.

Turning to `O=C(Nc1cnc(OCC(F)(F)F)c(-c2ccc(Cl)cc2)c1)[C@H]1CCCO1` (racemic) [Example 70, (RS)-N-(5-(4-chlorophenyl)-6-(2,2,2-trifluoroethoxy)pyridin-3-yl)tetrahydrofuran-2-carboxamide], the inhibition at 10 µM at human CB1 receptor is 49%; on human CB2 receptor, 15%. Moreover, the “% increase of ABCA1 at 3 μM” value with ABCA1 protein is >45% @ 3 μM.

In the case of `O=C(Nc1cnc(OCC(F)(F)F)c(-c2ccc(Cl)cc2)c1)c1ccco1` [Example 66, N-(5-(4-chlorophenyl)-6-(2,2,2-trifluoroethoxy)pyridin-3-yl)furan-2-carboxamide], the inhibition at 10 µM at human CB1 receptor was found to be 30%; at human CB2 receptor, 5%. In addition, in the assay on ABCA1 protein, the “% increase of ABCA1 at 3 μM” value is reported as >45% @ 3 μM.

In the case of `O=C(Nc1cnc(OCC(F)(F)F)c(-c2ccccc2)c1)c1cccnc1` [Example 74, N-(5-phenyl-6-(2,2,2-trifluoroethoxy)pyridin-3-yl)nicotinamide], the inhibition at 10 µM is 17% on human CB1 receptor and -7% on human CB2 receptor. In addition, the “% increase of ABCA1 at 3 μM” value in the assay on ABCA1 protein was >45% @ 3 μM.

With `Cn1nccc1C(=O)Nc1cnc(OCC(F)(F)F)c(-c2ccc(Cl)cc2)c1` [Example 20, 1-methyl-1H-pyrazole-5-carboxylic acid[5-(4-chloro-phenyl)-6-(2,2,2-trifluoro-ethoxy)-pyridin-3-yl]-amide], the inhibition at 10 µM on human CB1 receptor was determined as 34%; at human CB2 receptor it was 9%. In the assay on ABCA1 protein, this compound showed an EC50 of 6400 nM.

On to `COCCOc1ncc(NC(=O)c2ccccc2)cc1-c1ccc(Cl)c(C)c1` [Example 69, N-(5-(4-chloro-3-methylphenyl)-6-(2-methoxyethoxy)pyridin-3-yl)benzamide], for which the inhibition at 10 µM on human CB1 receptor was 35%; at human CB2 receptor it was 18%. In the assay on ABCA1 protein, the “% increase of ABCA1 at 3 μM” value was >45% @ 3 μM.

Consider `Cc1cncc(C(=O)Nc2cnc(OC3CCC3)c(-c3ccc(Cl)cc3)c2)c1` [Example 83, N-[5-(4-Chloro-phenyl)-6-cyclobutoxy-pyridin-3-yl]-5-methyl-nicotinamide], for which the inhibition at 10 µM at human CB1 receptor is 27%; at human CB2 receptor it was -5%. In addition, the “% increase of ABCA1 at 3 μM” value with ABCA1 protein was >45% @ 3 μM.

On to `O=C(Nc1cnc(OC2CCC2)c(-c2ccc(Cl)cc2)n1)c1cccnc1` [Example 50, N-(6-(4-chlorophenyl)-5-cyclobutoxypyrazin-2-yl)nicotinamide], for which the inhibition at 10 µM at human CB1 receptor was 39%; at human CB2 receptor it was -1%. In the assay with ABCA1 protein, this compound showed a half-maximal effective concentration (EC50) of 1500 nM.

As to `Cc1ccc(C(=O)Nc2cnc(OCC(F)(F)F)c(-c3ccc(Cl)cc3)c2)cn1` [Example 28, N-[5-(4-chloro-phenyl)-6-(2,2,2-trifluoro-ethoxy)-pyridin-3-yl]-6-methyl-3-pyridinecarboxylic acid amide], the inhibition at 10 µM at human CB1 receptor was 36%; at human CB2 receptor, -6%. The “% increase of ABCA1 at 3 μM” value in the assay on ABCA1 protein is listed as >45% @ 3 μM.

With `Nc1ccc(-c2cc(NC(=O)c3cncc(I)c3)cnc2OCC(F)(F)F)cc1Cl` [Example 73, N-(5-(4-amino-3-chlorophenyl)-6-(2,2,2-trifluoroethoxy)pyridin-3-yl)-5-iodonicotinamide], the figures for the inhibition at 10 µM on human CB1 receptor and on human CB2 receptor were 13% and 22%, respectively. Moreover, the “% increase of ABCA1 at 3 μM” value with ABCA1 protein was >45% @ 3 μM.

Regarding `O=C(Nc1cnc(OCC2CC2)c(-c2ccc(Cl)cc2)c1)c1ccncc1` [Example 11, N-[5-(4-chloro-phenyl)-6-cyclopropylmethoxy-pyridin-3-yl]-isonicotinamide], the results for the inhibition at 10 µM at human CB1 receptor and on human CB2 receptor were 25% and -1.2%, respectively. In addition, in the assay on ABCA1 protein, the “% increase of ABCA1 at 3 μM” value was >45% @ 3 μM.

Turning to `O=C(Nc1cnc(OCC(F)(F)F)c(-c2ccc(Cl)cc2)n1)c1cccnc1` [Example 49, N-(6-(4-chlorophenyl)-5-(2,2,2-trifluoroethoxy)pyrazin-2-yl)nicotinamide], the inhibition at 10 µM is 39% on human CB1 receptor and -3% on human CB2 receptor. In addition, in the assay on ABCA1 protein, the midpoint of the response, the EC50, lay at 300 nM.

As to `O=C(Nc1cnc(OCC(F)(F)F)c(-c2ccc(Cl)cc2)c1)c1ccccc1O` [Example 60, N-(5-(4-chlorophenyl)-6-(2,2,2-trifluoroethoxy)pyridin-3-yl)-2-hydroxy-benzamide], the inhibition at 10 µM was 38% at human CB1 receptor and -2% on human CB2 receptor. Besides, the “% increase of ABCA1 at 3 μM” value in the assay with ABCA1 protein is reported as >45% @ 3 μM.

Turning to `Cc1cc(-c2cc(NC(=O)c3cn(C)nc3C)cnc2OCC(F)(F)F)ccc1Cl` [Example 58, N-(5-(4-chloro-3-methylphenyl)-6-(2,2,2-trifluoroethoxy)pyridin-3-yl)-1,3-dimethyl-1H-pyrazole-4-carboxamide], the results for the inhibition at 10 µM at human CB1 receptor and on human CB2 receptor were 3% and -13%, respectively. The compound also yielded an EC50 with ABCA1 protein of 2200 nM.

In the case of `O=C(Nc1cnc(OCC(F)(F)F)c(-c2ccc(Cl)c(F)c2)c1)c1cncnc1` [Example 53, N-(5-(4-chloro-3-fluorophenyl)-6-(2,2,2-trifluoroethoxy)pyridin-3-yl)pyrimidine-5-carboxamide], the inhibition at 10 µM amounted to 21% on human CB1 receptor and 0% on human CB2 receptor. The “% increase of ABCA1 at 3 μM” value in the assay with ABCA1 protein is >45% @ 3 μM.

As to `Cc1ncccc1C(=O)Nc1cnc(OCC(F)(F)F)c(-c2ccc(Cl)cc2)c1` [Example 29, N-[5-(4-chloro-phenyl)-6-(2,2,2-trifluoro-ethoxy)-pyridin-3-yl]-2-methyl-3-pyridinecarboxylic acid amide], the inhibition at 10 µM on human CB1 receptor was 41%; at human CB2 receptor, 19%. Further, the “% increase of ABCA1 at 3 μM” value in the assay with ABCA1 protein is on record as >45% @ 3 μM.

Turning to `Cn1ccc(C(=O)Nc2cnc(OCC(F)(F)F)c(-c3ccc(Cl)cc3)c2)n1` [Example 15, 1-methyl-1H-pyrazole-3-carboxylic acid[5-(4-chloro-phenyl)-6-(2,2,2-trifluoro-ethoxy)-pyridin-3-yl]-amide], the inhibition at 10 µM was found to be 27% on human CB1 receptor and 2% at human CB2 receptor. Further, the “% increase of ABCA1 at 3 μM” value with ABCA1 protein is given as >45% @ 3 μM.

As to `O=C(Nc1cnc(OCC(F)(F)F)c(-c2ccc(F)cc2)c1)c1cccnc1` [Example 75, N-(5-(4-fluorophenyl)-6-(2,2,2-trifluoroethoxy)pyridin-3-yl)nicotinamide], the results for the inhibition at 10 µM at human CB1 receptor and on human CB2 receptor were 31% and 5%, respectively. Further, the “% increase of ABCA1 at 3 μM” value with ABCA1 protein is listed as >45% @ 3 μM.

`O=C(Nc1cnc(OCC(F)(F)F)c(-c2ccc(Cl)cc2)c1)c1ccc(O)cn1` [Example 40, 5-hydroxy-pyridine-2-carboxylic acid[5-(4-chloro-phenyl)-6-(2,2,2-trifluoro-ethoxy)-pyridin-3-yl]-amide]: the figures for the inhibition at 10 µM at human CB1 receptor and at human CB2 receptor were 19% and -5%, respectively. The EC50 in the assay on ABCA1 protein amounted to 3310 nM.
